What was measured:
Format in all cases: in vivo, human
[1] = test system: advanced pancreatic adenocarcinoma; assay: Randomized, double-blind, placebo-controlled study of gemcitabine+tipifarnib versus gemcitabine+placebo (Study INT-17 / INT-11)
Description: In a randomized, double-blind, placebo-controlled study of gemcitabine+tipifarnib versus gemcitabine+placebo in patients with advanced pancreatic adenocarcinoma previously untreated with systemic therapy, tipifarnib (R115777) was administered at a dosage amount of 200 mg twice a day, orally, and continuously (Study INT-17). Gemcitabine was administered intravenously at a dosage amount of 1,000 mg/m(2) weekly x 7 for 8 weeks, then weekly x 3 every 4 weeks. 686 patients were enrolled. The median overall survival for the experimental arm was 193 v 182 days for the control arm (P=0.75).

nodal PTCL = assay: Tipifarnib monotherapy in nodal PTCL patients with pre-treatment GEP data; settings: 13 nodal PTCL patients
Description: (§1) Gene expression profile (GEP) data generated using RNA-Seq and the Affymetrix U133A gene-chip of tumor samples from 71 patients enrolled in tipifarnib trials (CTEP-20, KO-TIP-002, KO-TIP-004) were analyzed with respect to study outcomes and complemented with analyses of mRNA expression in data sets from the cBioportal for Cancer Genomics. Clinical trial information: NCT00027872, NCT02464228, NCT02807272.
The effect of CXCL12 and IGF1 was also investigated in 13 nodal PTCL patients with pre-treatment GEP data who received tipifarnib monotherapy. […] Adjusting the IGFBP7 expression to the level of IGF1R expression also identified those patients as responders to therapy.

CMML = assay: Tipifarnib-treated CMML subjects with pre-treatment BM gene expression data; settings: in 17 tipifarnib-treated CMML subjects
Description: as §1
Four objective responses and 1 tumor lysis syndrome were reported in 17 tipifarnib-treated CMML subjects with available pre-treatment BM gene expression data. CXCL12 expression (p=0.07) and the CXCL12/CXCR4 ratio (p=0.03) were predictive of those events while IGF1 expression levels were barely detectable in these patients.

breast cancer = assay: Phase II study of tipifarnib in breast cancer patients (Study GBR-1)
Description: Biomarkers in breast cancer were also examined for their relationship to CXCL12/IGF1 expression and to the activity of tipifarnib when administered to patients. A phase II study was performed with 76 patients treated with tipifarnib (Study GBR-1). Patients were tested for estrogen-receptor positivity (ER+) or negativity (ER−), progesterone receptor positivity (PGR+) or negativity (PGR−), and the presence or absence of TP53 mutation. Overall response rate in the study was 12%. Biomarker data was available for 41 patients.

previously untreated AML = assay: Tipifarnib monotherapy in elderly patients with previously untreated AML (CTEP-20), outcome by IGF1/CXCL12 expression
Description: as §1
Data from a study investigating tipifarnib monotherapy in elderly patients with previously untreated AML (CTEP-20) was examined in detail to determine the effect of the expression of CXCL12 and IGF1 on the response of the patients to tipifarnib.
The effect of IGF1/CXCL12 co-expression on patient outcome in tipifarnib was examined. In previously untreated AML, 3 subsets of patients were identified with respect to IGF1/CXCL12 expression (FIG. 2A). These subsets were 1) high IGF1, high CXCL12 (left boxplots), 2) intermediate IGF1, low CXCL12 (middle boxplots), and 3) low IGF1, variable CXCL12, (right boxplots).
When CXCL12 was at low levels and IGF1 was at intermediate levels, low CXCL12 levels translates to disease progression with 1 CR and 8 with progressive disease (PD) as outcome (FIG. 2C). When the IGF1 levels were low, CXCL12 had variable levels and six patients out of 15 experienced CR. […] Receiver-Operator-Characterisitics (ROC) curves for prediction of a CR in these patients confirmed that higher CXCL12 and lower IGF1 levels were predictive of complete responses in the AML patient population (FIG. 2E).

[2] = subset intermediate IGF1, low CXCL12

Row | Compound | median overall survival ([1]; 686 patients enrolled, tipifarnib 200 mg twice a day orally, gemcitabine 1,000 mg/m(2) IV, P=0.75) [days] | survival of patients not reporting versus reporting abdominal pain at study entry, within arm ([1]; FIG. 5B) | Neutropenia grade > or =3 ([1]; all patients, per arm) [%] | thrombocytopenia grade > or =3 ([1]; all patients, per arm) [%] | partial responses (PR) (nodal PTCL) | tumor lysis syndrome (CMML) | Overall response rate (breast cancer; 76 patients treated) [%] | objective response rate (breast cancer; four patients with PGR(+) and ER(−) tumors) [%] | RESPONSE (breast cancer; one line per patient, PGR(+) ER(−) population) | objective response rate (breast cancer; seven patients with PGR(+) and wild type TP53 tumors) [%] | complete response (CR) (previously untreated AML; subset high IGF1, high CXCL12, out of 10 subjects) [patients] | complete response (CR) (previously untreated AML; [2]) | progressive disease (PD) as outcome (previously untreated AML; [2])
1 | gemcitabine [gemcitabine+placebo] | 182 | not significantly different | 30 | 12 |  |  |  |  |  |  |  |  | 
2 | Cn1cncc1[C@@](N)(c1ccc(Cl)cc1)c1ccc2c(c1)c(-c1cccc(Cl)c1)cc(=O)n2C [tipifarnib] |  |  |  |  | 2 | 1 | 12 | 75 | NO RESPONSE | 57 | 2 | 1 | 8
